From ChEMBL document CHEMBL1159173, “Investigation of side-chain sar, formulation and injection site toleration of pyrazolo[3,4-f]quinoline derivatives: a potent series of in vivo active immunostimulants” (Bioorg Med Chem Lett, 1993)

What was measured:
Mus musculus [1] = species on record: Mus musculus; experiment: Minimum effective dose for immunostimulant activity in mice was determined; assay type: functional; details: read-out: MED
[2] = Solubility was determined; assay type: physicochemical
Mus musculus [3] = species on record: Mus musculus; experiment: Minimum effective dose for immunostimulant activity in mice was determined; Toxic; assay type: functional, organism-based

Row | SMILES | solubility [2] | minimal effective dose (Mus musculus [1]) | MED (Mus musculus [3])
1 | Cc1cc(Nc2ccc(SCC(=O)O)cc2)c2c(ccc3c[nH]nc32)n1 |  | > 50 mg/kg | 
2 | CCCCOc1ccc(Nc2cc(C)nc3ccc4c[nH]nc4c23)cc1 | < 6000 µg/mL | 1.85 mg/kg | 
3 | COc1ccc(Nc2cc(C)nc3ccc4c[nH]nc4c23)cc1 |  | 16.7 mg/kg | 
4 | Cc1cc(Nc2ccc(OCc3ccccc3)cc2)c2c(ccc3c[nH]nc32)n1 | < 6000 µg/mL | 0.62 mg/kg | 
5 | c1cc(NC2CCCCC2)c2c(ccc3c[nH]nc32)n1 | ≥ 25000 µg/mL |  | Toxic
6 | Cc1cc(Nc2ccc(OCC3CCCCC3)cc2)c2c(ccc3c[nH]nc32)n1 | < 6000 µg/mL | 0.62 mg/kg | 
7 | Cc1cc(NC2CCCCC2)c2c(ccc3c[nH]nc32)n1 | ≥ 25000 µg/mL | 1.85 mg/kg | 
8 | Cc1cc(Nc2cccnc2)c2c(ccc3c[nH]nc32)n1 |  | > 50 mg/kg | 
9 | CCCc1ccc(Nc2cc(C)nc3ccc4c[nH]nc4c23)cc1 | > 6000 µg/mL | 6.25 mg/kg | 
10 | Cc1cc(Nc2ccc(O)cc2)c2c(ccc3c[nH]nc32)n1 |  | 16.7 mg/kg | 

Second part, led by results:

Row | solubility [2] | SMILES | minimal effective dose (Mus musculus [1]) | MED (Mus musculus [3])
11 | < 6000 µg/mL | Clc1ccc(Nc2ccnc3ccc4c[nH]nc4c23)cc1 | 12.5 mg/kg | 
12 | < 6000 µg/mL | Cc1cc(Nc2ccc(Cl)cc2)c2c(ccc3c[nH]nc32)n1 | 1.85 mg/kg | 
13 | > 6000 µg/mL | CCCCc1ccc(Nc2ccnc3ccc4c[nH]nc4c23)cc1 | 6.25 mg/kg | 
14 | > 6000 µg/mL | CCCCOc1ccc(Nc2ccnc3ccc4c[nH]nc4c23)cc1 | 3.13 mg/kg | 
15 | < 6000 µg/mL | Cc1ccc(Nc2cc(C)nc3ccc4c[nH]nc4c23)cc1 | 6.25 mg/kg | 
16 | < 6000 µg/mL | c1cc(Nc2ccc(OCC3CCCCC3)cc2)c2c(ccc3c[nH]nc32)n1 | 0.62 mg/kg | 
17 | > 6000 µg/mL | CCc1ccc(Nc2cc(C)nc3ccc4c[nH]nc4c23)cc1 | 12.5 mg/kg | 
